According to US4439426A, “Semisynthetic macrolidic antibiotics, intermediate compounds for their preparation and related pharmaceutical compositions containing them” (priority 1981, dated 1984):
Converted amounts (≈) assume the structure as drawn.

Columns and labels:
[1] = tested on: Streptococcus pyogenes ATCC 8668 LRP 34; assay: Bacteriostatic power in liquid medium (MIC); format: cell-based; details: Streptococcus pyogenes, ATCC8668, read-out: Minimum inhibiting concentration
How it was run: (§1)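 Strains → exposure to the compound → lowest growth-inhibiting concentration noted as MIC. Aerobic and anaerobic organisms of both Gram groups.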

[2] = tested on: Streptococcus pneumoniae ATCC 6303 LRP 35; assay: Bacteriostatic power in liquid medium (MIC); format: cell-based; details: Streptococcus pneumoniae, ATCC6303, read-out: Minimum inhibiting concentration
How it was run: as §1

[3] = tested on: Streptococcus faecalis subs. zymogenes ATCC 12958 LRP 61; assay: Bacteriostatic power in liquid medium (MIC); format: cell-based; details: Enterococcus faecalis, ATCC12958, read-out: Minimum inhibiting concentration
How it was run: as §1

[4] = tested on: Staphylococcus aureus ATCC 6538 P LRP 39; assay: Bacteriostatic power in liquid medium (MIC); format: cell-based; details: Staphylococcus aureus, ATCC6538, read-out: Minimum inhibiting concentration
How it was run: as §1

[5] = tested on: Corynebacterium diphteriae LRP 24; assay: Bacteriostatic power in liquid medium (MIC); format: cell-based; details: Corynebacterium, LRP24, read-out: Minimum inhibiting concentration
How it was run: as §1

[6] = Stability in acidic environment at 25° C. (half-life of initial microbiological activity); format: physicochemical; details: aqueous solution
Method: Stability in acidic environnment at 25° C. of the novel
Note: t 1/2 represents the time for reducing to one half the initial powe
of the antibiotic determined by microbiological method through diffusion
on a plate using the test stock Microccocus luteus (Sarcina lutea) ATCC

[7] = tested on: Klelsiella pneumoniae LRP 54; assay: Bacteriostatic power in solid medium (MIC); format: cell-based; details: read-out: Minimum inhibiting concentration
How it was run: as §1

[8] = tested on: Pseudomonas aeruginosa LRP 9; assay: Bacteriostatic power in solid medium (MIC); format: cell-based; details: Pseudomonas aeruginosa, LRP9, read-out: Minimum inhibiting concentration
How it was run: as §1

[9] = tested on: Proteus vulgaris ATCC 6380 LRP 13; assay: Bacteriostatic power in solid medium (MIC); format: cell-based; details: Proteus vulgaris, ATCC6380, read-out: Minimum inhibiting concentration
How it was run: as §1

[10] = tested on: Streptococcus pneumoniae ATCC 6303 LRP 52; assay: Bacteriostatic power in solid medium (MIC); format: cell-based; details: Streptococcus pneumoniae, ATCC6303, read-out: Minimum inhibiting concentration
How it was run: as §1

[11] = tested on: Streptococcus pyogenes ATCC 8668 LRP 34; assay: Bacteriostatic power in solid medium (MIC); format: cell-based; details: Streptococcus pyogenes, ATCC8668, read-out: Minimum inhibiting concentration
How it was run: as §1

[12] = tested on: Acholeplasma laidlawii ATCC 23206 LRP 204; assay: Bacteriostatic power in solid medium (MIC); format: cell-based; details: Acholeplasma laidlawii, ATCC23206, read-out: Minimum inhibiting concentration
How it was run: as §1

[13] = tested on: Streptococcus pneumoniae ATCC 6303 LRP 35; assay: Bacteriostatic power in solid medium (MIC); format: cell-based; details: Streptococcus pneumoniae, ATCC6303, read-out: Minimum inhibiting concentration
How it was run: as §1

[14] = tested on: Haemophilus influenzae ATCC 19418 LRP 213; assay: Bacteriostatic power in solid medium (MIC); format: cell-based; details: Haemophilus influenzae, ATCC19418, read-out: Minimum inhibiting concentration
How it was run: as §1

[15] = tested on: Streptococcus faecalis LRP 7; assay: Bacteriostatic power in solid medium (MIC); format: cell-based; details: Enterococcus faecalis, LRP7, read-out: Minimum inhibiting concentration
How it was run: as §1

[16] = tested on: Bacillus subtilis LRP 25; assay: Bacteriostatic power in solid medium (MIC); format: cell-based; details: Bacillus subtilis, LRP25, read-out: Minimum inhibiting concentration
How it was run: as §1

[17] = tested on: Bacteroides fragilis ATCC 23745 LRP 205; assay: Bacteriostatic power in solid medium (MIC); format: cell-based; details: Bacteroides fragilis, ATCC23745, read-out: Minimum inhibiting concentration
How it was run: as §1

[18] = tested on: Staphylococcus aureus ATCC 6538P LRP 39; assay: Bacteriostatic power in solid medium (MIC); format: cell-based; details: Staphylococcus aureus, ATCC6538P, read-out: Minimum inhibiting concentration
How it was run: as §1

[19] = tested on: Fusobacteriumnecrophroum ATCC 27852 LRP 210; assay: Bacteriostatic power in solid medium (MIC); format: cell-based; details: read-out: Minimum inhibiting concentration
How it was run: as §1

[20] = tested on: Neisseria gonorrhoeae ATCC 19424 LRP 214; assay: Bacteriostatic power in solid medium (MIC); format: cell-based; details: Neisseria gonorrhoeae, ATCC19424, read-out: Minimum inhibiting concentration
How it was run: as §1

[21] = tested on: Micrococcus luteus ATCC 15957 LRP 193; assay: Bacteriostatic power in solid medium (MIC); format: cell-based; details: Micrococcus luteus, ATCC15957, read-out: Minimum inhibiting concentration
How it was run: as §1

[22] = tested on: Micrococcus luteus ATCC 9341 LRP 6; assay: Bacteriostatic power in solid medium (MIC); format: cell-based; details: Micrococcus luteus, ATCC9341, read-out: Minimum inhibiting concentration
How it was run: as §1

[23] = tested on: Escherichia coli LRP 50; assay: Bacteriostatic power in solid medium (MIC); format: cell-based; details: Escherichia coli, LRP50, read-out: Minimum inhibiting concentration
How it was run: as §1

[24] = tested on: Staphylococcus aureus ATCC 6538P LRP 14; assay: Bacteriostatic power in solid medium (MIC); format: cell-based; details: Staphylococcus aureus, ATCC6538P, read-out: Minimum inhibiting concentration
How it was run: as §1

[25] = tested on: Staphylococcus aureus ATCC 14154 LRP 78; assay: Bacteriostatic power in solid medium (MIC); format: cell-based; details: Staphylococcus aureus, ATCC14154, read-out: Minimum inhibiting concentration
How it was run: as §1

[26] = tested on: Mycoplasma hominis I ATCC 14027 LRP 211; assay: Bacteriostatic power in solid medium (MIC); format: cell-based; details: Metamycoplasma hominis, ATCC14027, read-out: Minimum inhibiting concentration
How it was run: as §1

[27] = tested on: Streptococcus pyogenes ATCC 8668 LRP 197; assay: Bacteriostatic power in solid medium (MIC); format: cell-based; details: Streptococcus pyogenes, ATCC8668, read-out: Minimum inhibiting concentration
How it was run: as §1

[28] = tested on: Shigella sonnei LRP 5; assay: Bacteriostatic power in solid medium (MIC); format: cell-based; details: LRP5, read-out: Minimum inhibiting concentration
How it was run: as §1

[29] = tested on: Streptococcus pneumoniae ATCC 6303 LRP 53; assay: Bacteriostatic power in solid medium (MIC); format: cell-based; details: Streptococcus pneumoniae, ATCC6303, read-out: Minimum inhibiting concentration
How it was run: as §1

[30] = tested on: Streptococcus faecalis subsp. zymogenes ATCC 12958 LRP 61; assay: Bacteriostatic power in solid medium (MIC); format: cell-based; details: Enterococcus faecalis, ATCC12958, read-out: Minimum inhibiting concentration
How it was run: as §1

[31] = tested on: Corynebacterium diphteriae LRP 24; assay: Bacteriostatic power in solid medium (MIC); format: cell-based; details: Corynebacterium, LRP24, read-out: Minimum inhibiting concentration
How it was run: as §1

[32] = tested on: Streptococcus faecalis subs. zymogenes LRP 61; assay: Minimum bactericidal concentration (MBC); format: cell-based
Excerpt: (§2) the bacterial power, expressed as the minimum bactericidal power (MBC) against some Gram positive aerobic stocks (table 5).

[33] = tested on: Streptococcus pyogenes ATCC 8668 LRP 34; assay: Minimum bactericidal concentration (MBC); format: cell-based
Excerpt: as §2

[34] = tested on: Streptococcus pneumoniae ATCC 6303 LRP 35; assay: Minimum bactericidal concentration (MBC); format: cell-based
Excerpt: as §2

[35] = tested on: Staphylococcus aureus ATCC 6538 P LRP 39; assay: Minimum bactericidal concentration (MBC); format: cell-based
Excerpt: as §2

[36] = tested on: Corynebacterium diphteriae LRP 24; assay: Minimum bactericidal concentration (MBC); format: cell-based
Excerpt: as §2

[37] = tested on: Clostridium perfrigens ATCC 3624 LRP 206; assay: microbe, parasite or virus in culture; format: cell-based; details: ATCC3624, solid medium, anaerobic, read-out: Minimum inhibiting concentration
How it was run: as §1

[38] = tested on: Salmonella typhy LRP 8; assay: microbe, parasite or virus in culture; format: cell-based; details: LRP8, solid medium, read-out: Minimum inhibiting concentration
How it was run: as §1

CC[C@H]1OC(=O)[C@H](C)[C@@H](O[C@H]2C[C@H](OC)[C@@H](O)[C@H](C)O2)[C@H](C)[C@@H](O[C@@H]2O[C@H](C)C[C@H](N(C)C)[C@H]2O)[C@](C)(O)C[C@](C)(F)C(=O)[C@H](C)[C@@H](O)[C@H]1C [P-80204, 3-O-oleandrosyl-5-O-desosaminyl-(8S)-8-fluoroerythronolide B]
MIC [1]: 0.049 µg/mL (≈ 0.0679 µM) | MIC [2]: 0.024 µg/mL (≈ 0.0332 µM) | MIC [3]: 0.39 µg/mL (≈ 0.54 µM) | MIC [4]: 0.195 µg/mL (≈ 0.27 µM) | MIC [5]: 0.024 µg/mL (≈ 0.0332 µM) | half-life ([6]; pH 2): 25 h | half-life ([6]; pH 3): 100 h | MIC [7]: 25 µg/mL (≈ 34.6 µM) | MIC [8]: 25 µg/mL (≈ 34.6 µM) | MIC [9]: 25 µg/mL (≈ 34.6 µM) | MIC [10]: 0.049 µg/mL (≈ 0.0679 µM) | MIC [11]: 0.049 µg/mL (≈ 0.0679 µM) | MIC [12]: 3.12 µg/mL (≈ 4.32 µM) | MIC [13]: 0.049 µg/mL (≈ 0.0679 µM) | MIC [14]: 6.25 µg/mL (≈ 8.66 µM) | MIC [15]: 0.39 µg/mL (≈ 0.54 µM) | MIC [16]: 0.195 µg/mL (≈ 0.27 µM) | MIC [17]: 3.12 µg/mL (≈ 4.32 µM) | MIC [18]: 0.39 µg/mL (≈ 0.54 µM) | MIC [19]: 12.5 µg/mL (≈ 17.3 µM) | MIC [20]: 0.39 µg/mL (≈ 0.54 µM) | MIC [21]: 25 µg/mL (≈ 34.6 µM) | MIC [22]: 0.049 µg/mL (≈ 0.0679 µM) | MIC [23]: 25 µg/mL (≈ 34.6 µM) | MIC [24]: 0.39 µg/mL (≈ 0.54 µM) | MIC [25]: 25 µg/mL (≈ 34.6 µM) | MIC [26]: 25 µg/mL (≈ 34.6 µM) | MIC [27]: 0.049 µg/mL (≈ 0.0679 µM) | MIC [28]: 25 µg/mL (≈ 34.6 µM) | MIC [29]: 0.049 µg/mL (≈ 0.0679 µM) | MIC [30]: 0.39 µg/mL (≈ 0.54 µM) | MIC [31]: 0.049 µg/mL (≈ 0.0679 µM) | MBC/MIC [32]: 16 | MBC ([32]; Enterococcus faecalis, read-out: Minimum bactericidal concentration (MBC)): 6.25 µg/mL (≈ 8.66 µM) | MBC/MIC [33]: 8 | MBC ([33]; Streptococcus pyogenes, ATCC8668, read-out: Minimum bactericidal concentration (MBC)): 0.39 µg/mL (≈ 0.54 µM) | MBC/MIC [34]: 2 | MBC ([34]; Streptococcus pneumoniae, ATCC6303, read-out: Minimum bactericidal concentration (MBC)): 0.049 µg/mL (≈ 0.0679 µM) | MBC/MIC [35]: 16 | MBC ([35]; Staphylococcus aureus, ATCC6538, read-out: Minimum bactericidal concentration (MBC)): 3.12 µg/mL (≈ 4.32 µM) | MBC/MIC [36]: 16 | MBC ([36]; Corynebacterium, LRP24, read-out: Minimum bactericidal concentration (MBC)): 0.39 µg/mL (≈ 0.54 µM) | MIC [37]: 1.56 µg/mL (≈ 2.16 µM) | MIC [38]: 25 µg/mL (≈ 34.6 µM)
